Patent US4619941A, “N-[(1H-imidazol-1-yl)alkyl]-1H-indolecarboxamides useful as thromboxane synthetase inhibitors and antihypertensive agents” (American Cyanamid Company, priority 1984, dated 1986)

Experiments:
thromboxane synthetase = molecular target: T1, thromboxane synthetase (Rattus norvegicus, UniProt P49430); test: Inhibition of thromboxane (TXA2) formation, determined as TXB2 formed by washed SHR platelets (direct RIA); assay type: cell-based, Okamoto-Aoki spontaneously hypertensive rats (SHR); settings: Dose 10^-4 M, 10 minutes at 37° C., pH 7.4
T1 construct: The platelets were isolated by centrifuging the PRP for 10 minutes at 1060 xg; endogenous in cells; host or cells: washed platelets from arterial blood of Okamoto-Aoki spontaneously hypertensive rats (Taconic Farms), 19 to 24 weeks old
T1 sequence (P49430 1-533): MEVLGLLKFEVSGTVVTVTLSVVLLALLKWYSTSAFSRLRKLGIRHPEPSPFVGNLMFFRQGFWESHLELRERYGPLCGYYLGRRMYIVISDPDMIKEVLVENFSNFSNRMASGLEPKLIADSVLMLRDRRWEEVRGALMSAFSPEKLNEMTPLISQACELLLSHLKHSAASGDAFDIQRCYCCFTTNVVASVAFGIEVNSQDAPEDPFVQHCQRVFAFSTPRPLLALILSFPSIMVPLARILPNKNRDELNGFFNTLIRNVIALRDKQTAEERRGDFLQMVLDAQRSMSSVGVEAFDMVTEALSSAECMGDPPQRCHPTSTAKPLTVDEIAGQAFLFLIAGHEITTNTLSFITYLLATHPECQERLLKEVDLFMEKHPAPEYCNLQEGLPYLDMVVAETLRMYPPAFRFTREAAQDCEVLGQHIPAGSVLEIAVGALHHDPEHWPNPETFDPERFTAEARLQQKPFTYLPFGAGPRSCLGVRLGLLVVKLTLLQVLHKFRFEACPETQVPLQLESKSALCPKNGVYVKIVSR
Method: The inhibition of thromboxane (TXA2) formation was studied by determining the concentration of thromboxane B2 (TXB2), the stable hydrolysis product of TXA2.
The blood was diluted with 3 ml cold saline and centrifuged at room temperature for 15 minutes at 460 xg. The platelet rich plasma (PRP) was separated. The platelets were isolated by centrifuging the PRP for 10 minutes at 1060 xg and were washed in 4 ml cold oxygenated Krebs phosphate buffer, pH 7.4. the chilled platelets recovered from centrifuging at 800 xg for 10 minutes were resuspended in oxygenated Krebs phosphate buffer and diluted to contain 4.5-6.0×10^4 platelets/μl. […] The samples were incubated for 10 minutes at 37° C. in a metabolic shaker. The reaction was terminated by immersing the tubes in an ice bath and adding 50 μl of 0.5 M citric acid. The samples were centrifuged for 10 minutes in a refrigerated centrifuge and the supernatants thus obtained were decanted and stored at -20° C. The TXB2 content for each sample was determined by a direct radioimmunoassay (RIA) utilizing a TXB2 specific RIA kit purchased from New England Nuclear, Boston, MA and expressed as pg TXB2 formed minute^-1 sample^-1, from which the percent inhibition of TXB2 formation was calculated.

[1] = tested on: spontaneously hypertensive rats of the Okamoto strain; test: Hypotensive activity in spontaneously hypertensive rats, mean arterial blood pressure (method of Chan and Poorvin); assay type: in vivo; settings: by gavage, 100 mg/kg or less, second identical dose at 24 hours; measured 28 hours after initial dose; SHR average MABP 160±1.5 mm Hg
Method: Male, 16 week old, spontaneously hypertensive rats of the Okamoto strain, from Taconic Farms, Germantown, N.Y., having an average means arterial blood pressure of 160±1.5 mm of mercury are used in the test. One to three rats are used per test compound. A rat is dosed by gavage with a test compound, suspended in 2% pre-boiled starch at a concentration of 50 mg/ml, at a dose of 100 mg/kg of body weight or less with 0.9% sodium chloride loading at a dose of 25 ml/kg of body weight. A second identical dose of the test compound, without sodium chloride loading is given 24 hours later. At 28 hours after the initial dose the mean arterial blood pressure is measured by the method of Chan and Poorvin vide supra. The procedure is repeated in a second and third rat when necessary.

Compound | inhibition at 100 µM (thromboxane synthetase) | MABP (mean arterial blood pressure) [1]
Cc1nccn1CCCNC(=O)c1cc2ccccc2n1C [1-Methyl-N-[3-(2-methyl-1H-imidazol-1-yl)-propyl]-1H-indole-2-carboxamide] | 56% | 
CC(CNC(=O)c1cc2cc(Cl)ccc2[nH]1)Cn1ccnc1 (stereo not drawn) [5-Chloro-N-[3-(1H-imidazol-1-yl)-2-methylpropyl]-1Hindole-2carboxamide] | 100% | 123 mm Hg
O=C(NCCCn1ccnc1)c1cc2cc(Cl)ccc2[nH]1 [5-Chloro-N-[3-(1H-imidazol-1-yl)propyl]-1H-indole-2-carboxamide] | 95% | 
O=C(NCCCCn1ccnc1)c1cc2cc(Cl)ccc2[nH]1 [5-Chloro-N-[4-(1H-imidazol-1-yl)butyl]-1H-indole-2-carboxamide] |  | 118 mm Hg
O=C(NCCCCCn1ccnc1)c1cc2cc(Cl)ccc2[nH]1 [5-Chloro-N-[5-(1H-imidazol-1-yl)pentyl]-1H-indole-2-carboxamide] |  | 124 mm Hg
O=C(NCCCCCCCCn1ccnc1)c1cc2cc(Cl)ccc2[nH]1 [5-Chloro-N-[8-(1H-imidazol-1-yl)octyl]-1H-indole-2-carboxamide] | 66% | 
COc1ccc2[nH]c(C(=O)NCCCCn3ccnc3)cc2c1 [5-Methoxy-N-[4-(1H-imidazol-1-yl)butyl]-1H-indole-2-carboxamide] | 100% | 130 mm Hg
O=C(NCCCn1ccnc1)c1cc2ccccc2[nH]1 [N-[3-(1H-Imidazol-1-yl)propyl]-1H-indole-2-carboxamide] | 94% | 114 mm Hg
O=C(NCCCn1ccnc1)c1ccc2[nH]ccc2c1 [N-[3-(1H-Imidazol-1-yl)propyl]-1H-indole-5-carboxamide] |  | 133 mm Hg
Cc1cn(CCCNC(=O)c2cc3ccccc3[nH]2)cn1 [N-[3-(4-Methyl-1H-imidazol-1-yl)propyl]-1H-indole-2-carboxamide] | 100% | 131 mm Hg
O=C(NCCCCn1ccnc1)c1cc2ccccc2[nH]1 [N-[4-(1H-Imidazol-1-yl)butyl]-1H-indole-2-carboxamide] | 100% | 137 mm Hg

Further lines, with some results ahead:

inhibition at 100 µM (thromboxane synthetase) | Compound | MABP (mean arterial blood pressure) [1]
85% | Cc1cn(CCCNC(=O)c2cc3ccccc3n2C)cn1 [1-Methyl-N-[3-(4-methyl-1H-imidazol-1-yl)propyl]-1H-indole-2-carboxamide] | 136 mm Hg
98% | CC(CCNC(=O)c1cc2cc(Cl)ccc2[nH]1)n1ccnc1 (stereo not drawn) [5-Chloro-N-[3-(1H-imidazol-1-yl)-butyl]-1H-indole-2-carboxamide] | 119 mm Hg
100% | Cc1cn(CCCNC(=O)c2cc3cc(Cl)ccc3[nH]2)cn1 [5-Chloro-N-[3-(4-methyl-1H-imidazol-1-yl)propyl]-1H-indole-2-carboxamide] | 135 mm Hg
49% | COc1ccc2[nH]c(C(=O)NCCCn3ccnc3C)cc2c1 [5-Methoxy-N-[3-(2-methyl-1H-imidazol-1-yl)propyl]-1H-indole-2-carboxamide] | 
88% | Cn1c(C(=O)NCCCn2ccnc2)cc2ccccc21 [N-[3-(1H-Imidazol-1-yl)propyl]-1-methyl-1H-indole-2-carboxamide] | 
96% | COc1ccc2[nH]c(C(=O)NCCCn3ccnc3)cc2c1 [N-[3-(1H-Imidazol-1-yl)propyl]-5-methoxy-1H-indole-2-carboxamide] | 
44% | Cc1nccn1CCCNC(=O)c1cc2ccccc2[nH]1 [N-[3-(2-Methyl-1H-imidazol-1-yl)propyl]-1H-indole2-carboxamide] | 
91% | O=C(NCCCn1ccnc1-c1ccccc1)c1cc2ccccc2[nH]1 [N-[3-(2-Phenyl-1H-imidazol-1-yl)propyl]-1H-indole-2-carboxamide] | 
